Columns and labels:
Nur77−/−HeLa cells = assay: PARP cleavage and caspase 3 activation, Nur77 knockout HeLa; assay type: cell-based
Description: Knocking out Nur77 and Bcl-2 from HeLa cells employed the CRISPR/Cas9 system. gRNA targeting sequence of Nur77 (5′-[…]-3′) and Bcl-2 (5′-[…]-3′) was cloned into gRNA cloning vector Px330 (Addgene, 71707) and confirmed by sequencing. To screen for cells lacking Nur77 or Bcl-2, HeLa cells were transfected with control vector and gRNA expression vectors, followed by G418 selection (0.5mg/m1). Single colonies were subjected to Western blotting using anti-Nur77 and anti-Bcl-2 antibody to select knockout cells.
The apoptotic effect of Compound lwas also evaluated in Nur77 genome knockout HeLa cells generated by CRISPR/Cas9 technology (Example A-5).

[1] = system: Nur77 interaction with Bcl-2; assay: Cell-based co-immunoprecipitation of Nur77 and Bcl-2
Description: Western blotting and co-immunopreciptations (co-IP) were performed. Briefly, cells transfected with or without expression vectors for Nur77 and Bcl-2 were treated with test compounds for 2 hours. The effect of compounds on the interaction of endogenous or transfected Nur77 and Bcl-2 was analyzed by co-immunoprecipitation using appropriate antibodies. Proteins immunoprecipitated from cells by an appropriate anti-Nur77 or anti-Bcl-2 antibody were analyzed by Western blotting.

MDA-MB-231 cells = assay: Flow cytometry-based Annexin V/PI apoptosis assay, MDA-MB-231; assay type: cell-based; settings: 1 μM, 6 hours
HCT116 cells = assay: PARP cleavage assay (Western blotting), HCT116; assay type: cell-based; settings: 6 hours
From the text: Compound 1a had no effect under the same conditions (FIG. 1A). […] Compound 1a, 28a, 47a, 48a, 73a, 39a, 70a, 103a, 89a and 88a had no effect under the same conditions (FIG. 3B-C).

Nur77−/− HeLa cells = assay: Mitochondrial membrane potential (JC1), Nur77 knockout HeLa; assay type: cell-based; settings: 1 μM, 6 h
Description: Loss of mitochondrial membrane potential (Avm) represents one of the hallmarks of apoptosis. A JC-1 probe was employed to measure mitochondrial depolarization in cancer cells. MDA-MB-231 breast cancer cells were treated with different concentration of test compounds for 6 hours. JC-1 staining solution (5 μg/ml) was added at 37° C. for 20 min. After washing with PBS twice, mitochondrial membrane potentials were monitored by determining the relative amounts of dual emission from a multiple fluorescence reader. The fluorescence in cells was quantitatively analyzed by flow cytometry. Mitochondrial depolarization is depicted by an increase in the green/red fluorescence intensity ratio. ROS were monitored with the oxiadtion-senstive fluorescent probe 2′7′-dichlorodihydroflurescenin diacetate (DCF-DA).
Furthermore, Nur77^−/−HeLa cells were more resistant than the parental HeLa cells to Compound 1 in its induction of the mitochondrial membrane potential loss measured by JC1 staining and in the release of mitochondrial ROS (as performed in Example A-12).

SW620 xenograft tumor = assay: SW620 xenograft nude mouse study; assay type: in vivo, BALB/c nude mice
Description: Male BALB/c nude mice (6 weeks old) were subcutaneously injected with log growth-phase of SW620 cells (1×10^6 cells in 0.1 ml PBS). Mice were treated orally after 7 days of transplantation with Compound 1 once a day. Body weight and tumor size were measured every 3 days. Tumors were measured and weighted. Tissues isolated from the nude mice were fixed with 4% paraformaldehyde. TdT-mediated dUTP nick end labeling assay was performed according to the manufacturer's instructions (In situ Cell Death Detection Kit; Roche).

pBind-RXRa-LBD and Nur77 = assay: Mammalian one hybrid assay, Gal4-RXRa-LBD with Nur77; assay type: cell-based; settings: cotransfection of pBind-RXRa-LBD and Nur77, Dual-Luciferase (FIG. 10)
Description: HEK293T cells were co-transfected with pG5 Luciferase reporter together with the plasmid encoding RXRa-LBD fused with the Gal4 DNA-binding domain and other expression plasmids. After transfection, cells were treated with DMSO or a test compound, and assayed by using the Dual-Luciferase Reporter Assay System (Promega). Transfection efficiency was normalized to Renilla luciferase activity.
To exclude the possibility that Compound 1 acted on RXRa, Glu453 and Glu456 in the RXRa activation function 2 (AF2) region were substituted with Ala and the resulting mutant, RXRa-LBD/E453,6A, was used.

GFP-Nur77 = GFP-Nur77 (Homo sapiens, UniProt P22736); assay: GFP-Nur77 localization in transfected HEK293T cells; assay type: cell-based; settings: HEK293T cells transfected with GFP-Nur77, 0.5 μM
Sequence of GFP-Nur77 (P22736 whole entry): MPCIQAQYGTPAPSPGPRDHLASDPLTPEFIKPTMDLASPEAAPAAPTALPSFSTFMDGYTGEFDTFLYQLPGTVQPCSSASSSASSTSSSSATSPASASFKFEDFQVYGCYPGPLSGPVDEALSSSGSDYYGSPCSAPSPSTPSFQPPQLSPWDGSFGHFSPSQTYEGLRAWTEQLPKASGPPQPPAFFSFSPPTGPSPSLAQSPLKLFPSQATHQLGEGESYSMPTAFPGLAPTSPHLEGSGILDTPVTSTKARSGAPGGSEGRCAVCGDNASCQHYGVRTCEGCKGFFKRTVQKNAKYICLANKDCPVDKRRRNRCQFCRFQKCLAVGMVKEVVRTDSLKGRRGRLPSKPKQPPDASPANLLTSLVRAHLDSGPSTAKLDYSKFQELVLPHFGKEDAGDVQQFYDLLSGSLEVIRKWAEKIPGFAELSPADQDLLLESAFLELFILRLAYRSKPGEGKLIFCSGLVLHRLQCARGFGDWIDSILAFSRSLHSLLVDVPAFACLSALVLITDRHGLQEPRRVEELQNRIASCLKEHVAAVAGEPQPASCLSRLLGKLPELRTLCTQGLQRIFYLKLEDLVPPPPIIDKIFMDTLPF
Description: Cells were fixed in 3.7% paraformaldehyde. For mitochondrial staining, cells were incubated with anti-Hsp60 goat immunoglobulin G (IgG) (Santa Cruz Biotechnology, Santa Cruz, Calif.), followed by anti-goat IgG conjugated with Cy3. The nuclei were visualized by DAPI staining. Fluorescent images were collected and analyzed by using a fluorescence microscopy or MRC-1024 MP laser-scanning confocal microscope (Bio-Rad, Hercules, Calif.).
To confirm the effect of Compound 1 on Nur77 cytoplasmic localization, HEK293T cells were transfected with GFP-Nur77 and subsequently treated with 0.5 μM Compound 1.

Nur77 [2] = target: T1, Nur77 (Homo sapiens, UniProt P22736); assay: Cellular fractionation and immunostaining: mitochondrial targeting of Nur77; assay type: cell-based
T1 construct: expressed in transfected cells
T1 sequence (P22736 whole entry): as above
Description: (§1) For cellular fractionation, cells were lysed in cold buffer A (10 mM HEPES-KOH (pH 7.9), 1.5 mM MgCl2, 10 mM KCl, 0.5 mM dithiothreitol) with a cocktail of proteinase inhibitors on ice for 10 min as described. Cytoplasmic fraction was collected by centrifuging at 6000 rpm for 30 seconds. Pellets containing nuclei were resuspended in cold high-salt buffer C (20 mM HEPES-KOH (pH 7.9), 25% glycerol, 420 mM NaCl, 1.5 mM MgCl2, 0.2 mM EDTA, 0.5 mM dithiothreitol) with a cocktail of proteinase inhibitors on ice for 30 minutes.

Nur77 [3] = assay: as above; assay type: cell-based
Description: as §1

## FC(F)(F)c1ccc([C+](c2c[nH]c3ccccc23)c2c[nH]c3ccccc23)cc1 [Compound 1, Bis(1H-indol-3-yl)(4-(trifluoromethyl)phenyl)methylium methanesulfonate]
Nur77−/−HeLa cells
  induction of PARP cleavage and caspase 3 activation: strongly suppressed
[1]; Nur77 transfected in HeLa cells
  Nur77 interaction with Bcl-2 (Co-IP): interacted with Bcl-2
[1]; anti-Bcl-2 antibody
  endogenous Nur77 immunoprecipitated with endogenous Bcl-2: specifically immunoprecipitated together with endogenous Bcl-2
[1]; transfected in HEK293T cells
  Nur77 or Nur77-LBD interaction with Bcl-2 (Co-IP): interacted with Bcl-2
MDA-MB-231 cells
  apoptotic cells (Annexin V/PI): about 31.63%
HCT116 cells; 0.5 μM, Western blotting
  PARP cleavage: effectively induced PARP cleavage
HCT116 cells
  concentration inducing PARP cleavage (dose dependent study): submicromolar concentrations
Nur77−/− HeLa cells
  JC1 green to red ratio: no significant change
SW620 xenograft tumor; SW620 xenograft, compared to control tumor
  apoptosis in tumor specimens (TUNEL assay): extensive apoptosis
SW620 xenograft tumor; nude mice, oral, once a day (FIGS. 6A-6B)
  growth of SW620 xenograft tumor: inhibited the growth of SW620 xenograft tumor in a dose and time-dependent manner
pBind-RXRa-LBD and Nur77
  reporter transcriptional activity: dose dependently induced the reporter activity
GFP-Nur77
  GFP-Nur77 subcellular localization: diffusely distributed in both the cytoplasm and nucleus
Nur77 [2]; cellular fractionation
  transfected GFP-Nur77 in heavy membrane (HM) fraction: accumulated in the mitochondria-enriched heavy membrane (HM) fraction
Nur77 [2]; mitochondria fractionation, 1μM
  Myc-Nur77 in heavy membrane (HM) fraction: accumulated in the mitochondria-enriched heavy membrane (HM) fraction
Nur77 [3]; confocal microscopy and cellular fractionation
  transfected GFP-Nur77-LBD colocalization with Hsp60: colocalized extensively with the mitochondria-specific Hsp60 protein
Nur77 [3]; immunostaining
  Myc-Nur77-LBD colocalization with mitochondria: colocalized extensively with the mitochondria

— patent US20210024499A1, “OXIDIZED BIS(3-INDOLYL)METHANES AND USES THEREOF” (Sanford Burnam Prebys Medical Discovery Institute, priority 2018, published 2021)
